One experiment concerns CLL. Briefly: CLL assay. Format: cell-based.
The test system of another experiment is U937 cells. Kind of experiment: TNF alpha release by LPS-treated U937 cells. Format: cell-based. As to conditions: for TNF alpha, % vehicle control: 10 uM cmpd, 0 uM BC30.
Experiment [1] has as its target T1, PDE7A (Homo sapiens, UniProt Q13946). Briefly: 5FOA growth assay in fission yeast strain expressing PDE7A. Set-up: targets used in the assays are full-length proteins (as opposed to simply the catalytic domain); expressed in transfected cells; host or cells: Schizosaccharomyces pombe, PDE gene integrated in place of cgs2. Format: cell-based. The essentials:
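Fission yeast carrying an fbp1-ura4 reporter were pregrown to exponential phase at 30 °C in EMM with 0–2.5 mM cAMP (or 0.5/1.0 mM cGMP), then moved into 5FOA medium with 100 nl pinned compound (10 mM stocks). Growth was read as OD600 after 48 h at 30 °C and scored as composite Z scores.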

The target in the next experiment is T2, PDE4D2-CAT (Homo sapiens, UniProt Q08499).
T2 construct: 86-413; made in house; host or cells: E. coli
T2 sequence (Q08499 388-715): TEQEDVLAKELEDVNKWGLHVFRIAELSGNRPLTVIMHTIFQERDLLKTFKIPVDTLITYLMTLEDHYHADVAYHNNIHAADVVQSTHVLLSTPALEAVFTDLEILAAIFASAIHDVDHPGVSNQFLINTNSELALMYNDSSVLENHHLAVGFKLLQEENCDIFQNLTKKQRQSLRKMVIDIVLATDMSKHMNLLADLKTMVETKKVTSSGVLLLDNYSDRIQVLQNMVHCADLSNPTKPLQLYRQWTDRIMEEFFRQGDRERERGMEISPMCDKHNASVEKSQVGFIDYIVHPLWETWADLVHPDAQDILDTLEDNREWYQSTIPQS
Kind of experiment: in vitro enzyme assay, catalytic fragment of PDE4D2 (residues 86-413). Format: biochemical.

The next experiment has as its system Lymphoma cells. Kind of experiment: in vitro assay on lymphoma cells (24 hours, Hoechst stain, fsc/ssc). Format: cell-based. As to the method:
FIGS. 6A and 6B show the in vitro assay of BC54 action. Lymphoma cells are treated with the drug for 24 hours, then stained with Hoechst dye. The cells form a clearly defined population on the fsc/ssc dot plot. Vincristine treatment was used as a positive control. […] BC54 is referred to in the figure as S54.

Experiment [2] concerns the target T3, PDE7B (Rattus norvegicus, UniProt A0A0G2JXU0).
T3 construct: endogenous in cells; host or cells: rat pulmonary endothelial cells (extract)
T3 sequence (A0A0G2JXU0 1-446): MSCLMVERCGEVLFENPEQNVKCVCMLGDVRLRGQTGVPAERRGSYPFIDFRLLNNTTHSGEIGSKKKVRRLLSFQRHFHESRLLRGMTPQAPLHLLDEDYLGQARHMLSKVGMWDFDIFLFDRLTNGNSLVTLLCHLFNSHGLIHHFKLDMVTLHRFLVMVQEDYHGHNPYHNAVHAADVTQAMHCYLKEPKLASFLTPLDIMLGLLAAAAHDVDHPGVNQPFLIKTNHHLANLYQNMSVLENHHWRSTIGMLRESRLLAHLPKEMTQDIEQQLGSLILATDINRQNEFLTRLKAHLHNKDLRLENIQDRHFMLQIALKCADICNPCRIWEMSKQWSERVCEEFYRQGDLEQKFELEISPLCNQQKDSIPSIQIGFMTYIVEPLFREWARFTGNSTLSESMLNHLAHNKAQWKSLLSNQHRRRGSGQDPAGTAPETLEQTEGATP
Kind of experiment: in vitro enzyme assay of PDE7B activity in extracts from rat pulmonary endothelial cells. It is filed as biochemical. An excerpt: FIG. 13 is the in vitro enzyme assays of PDE7B activity in extracts made from rat pulmonary endothelial cells.

Experiment [3] deals with PDE4A, PDE4B, PDE4D, PDE7A, PDE7B, PDE8A, PDE3A. Kind of experiment: Summary of PDE inhibitor profile.
The target in experiment [4] is T4, PDE7B (Homo sapiens, UniProt Q9NP56). Briefly: in vitro enzyme assay, PDE7B catalytic domain from E. coli, hydrolysis of cAMP to AMP. As to conditions: for IC50: AC200 = [Compound] that doubles PDE activity, read-out: IC50 (or AC200), PDE7B. Set-up: The PDE7B catalytic domain was expressed in and purified from E. coli; made in house; host or cells: E. coli. Format: biochemical. As to the method: The PDE7B catalytic domain was expressed in and purified from E. coli and tested for activity in an in vitro enzyme assay, measuring the hydrolysis of cAMP to AMP. Four dilutions of the enzyme preparation were tested at various compound concentrations (X axis). The percent of cAMP hydrolyzed is plotted on the Y axis.
Target sequence in this assay (Q9NP56 97-420 limits assumed, species assumed): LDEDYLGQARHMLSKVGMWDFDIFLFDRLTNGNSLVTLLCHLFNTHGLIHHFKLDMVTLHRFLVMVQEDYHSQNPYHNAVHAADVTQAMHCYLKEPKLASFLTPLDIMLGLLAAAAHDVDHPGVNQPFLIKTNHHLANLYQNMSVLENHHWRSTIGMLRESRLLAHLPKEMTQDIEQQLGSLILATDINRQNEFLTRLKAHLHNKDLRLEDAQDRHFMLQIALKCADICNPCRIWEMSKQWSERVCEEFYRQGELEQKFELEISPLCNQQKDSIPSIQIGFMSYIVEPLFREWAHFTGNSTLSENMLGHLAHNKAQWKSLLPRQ

Experiment [5] concerns the target T4, PDE7B. Briefly: 5FOA growth assay in fission yeast strain expressing PDE7B. Also noted: targets used in the assays are full-length proteins (as opposed to simply the catalytic domain); expressed in transfected cells; host or cells: Schizosaccharomyces pombe. Format: cell-based. As to the method: PDE inhibition allows growth in 5FOA medium as measured by optical density after 48 hours incubation at 30° C. Compound BC12 and six structural analogs were tested for growth stimulation.
Cells were pregrown in EMM medium [MP Biomedicals (Solon, Ohio), 3% glucose, filter-sterilized to avoid carmelization, which would introduce variability into the optical density of the medium] containing from 0 mM to 2.5 mM cAMP (or either 0.5 mM or 1.0 mM cGMP). This was to repress expression of the fbp1-ura4 reporter prior to exposure of cells to 5FOA medium. Cells were grown at 30° C. to exponential phase (approximately 10^7 cells/ml). Cells were collected by centrifugation and resuspended in 5FOA medium, and 25 μl were transferred to 384-well microtiter dishes (untreated, with flat clear bottoms) that had been pre-filled with 25 μl 5FOA medium and pre-pinned with 100 nl of compounds (stock solutions were generally 10 mM). Starting cell concentrations ranged from 0.5×10^5 to 4×10^5 cells/ml depending on the screening strain. […] Other positive control dishes contained 5 mM cAMP in the 5FOA medium for PDEs that lack appropriate control compounds. Cultures were grown for 48 hours at 30° C., sealed in an airtight container with moist paper towels to prevent evaporation. Optical densities (OD600) of cultures were measured using a microplate reader. Bioinformatic analysis of the results to determine composite Z scores was performed as previously described (1, 3).
Target sequence in this assay (Q9NP56 whole entry, species assumed, the tested form may be a part): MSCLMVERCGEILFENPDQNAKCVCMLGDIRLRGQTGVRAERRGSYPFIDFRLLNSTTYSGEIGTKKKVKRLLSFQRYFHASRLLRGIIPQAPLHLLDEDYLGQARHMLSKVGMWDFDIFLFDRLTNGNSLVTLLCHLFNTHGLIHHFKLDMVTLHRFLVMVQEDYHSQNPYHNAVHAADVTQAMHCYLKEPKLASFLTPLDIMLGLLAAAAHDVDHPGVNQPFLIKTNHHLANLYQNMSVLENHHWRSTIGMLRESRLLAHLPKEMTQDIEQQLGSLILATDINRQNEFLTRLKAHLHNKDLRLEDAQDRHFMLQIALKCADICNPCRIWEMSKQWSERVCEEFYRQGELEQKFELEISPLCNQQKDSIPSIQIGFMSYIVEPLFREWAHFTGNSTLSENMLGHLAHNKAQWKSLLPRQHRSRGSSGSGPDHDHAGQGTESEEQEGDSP

The target of the next experiment is T5, PDE4D2-FL (Homo sapiens, UniProt Q08499).
T5 construct: 1-507; made in house; host or cells: E. coli
T5 sequence (Q08499 303-809): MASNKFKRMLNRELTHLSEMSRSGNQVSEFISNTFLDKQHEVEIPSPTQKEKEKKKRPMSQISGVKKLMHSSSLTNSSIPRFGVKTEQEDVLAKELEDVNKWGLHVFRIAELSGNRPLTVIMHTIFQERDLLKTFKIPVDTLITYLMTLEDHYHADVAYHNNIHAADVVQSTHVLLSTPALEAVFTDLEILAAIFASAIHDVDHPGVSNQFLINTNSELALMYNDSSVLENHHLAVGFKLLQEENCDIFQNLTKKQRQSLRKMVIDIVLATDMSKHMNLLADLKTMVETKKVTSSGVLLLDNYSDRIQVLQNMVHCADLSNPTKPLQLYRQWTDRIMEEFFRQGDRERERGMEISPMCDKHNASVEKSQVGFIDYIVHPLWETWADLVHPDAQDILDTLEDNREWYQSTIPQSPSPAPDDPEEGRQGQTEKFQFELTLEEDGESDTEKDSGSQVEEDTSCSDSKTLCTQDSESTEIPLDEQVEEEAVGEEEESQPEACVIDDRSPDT
Briefly: in vitro enzyme assay, full-length PDE4D2 (residues 1-507). As to conditions: read-out: IC50 (or AC200), PDE4D2-FL. It is filed as biochemical.

For experiment [6], the target named is T1, PDE7A. Briefly: in vitro enzyme assay PDE7A. As to conditions: for IC50: E. coli expressed and purified enzyme, read-out: IC50 (or AC200), PDE7A. Format: biochemical. Also noted: made in house; host or cells: E. coli.
The target in a further experiment is PDE4B (Homo sapiens, UniProt Q07343). Kind of experiment: in vitro enzyme assay PDE4B (Table 7). As to conditions: 2 micromolar compound; read-out: percent of PDE activity present, PDE4B. It is filed as biochemical.
A further experiment deals with PDE4A (Homo sapiens, UniProt P27815). Briefly: in vitro enzyme assay PDE4A (Table 7). It is filed as biochemical. As to conditions: 2 micromolar compound; read-out: percent of PDE activity present, PDE4A.
PDE4A, sequence (P27815 whole entry, species assumed, the tested form may be a part): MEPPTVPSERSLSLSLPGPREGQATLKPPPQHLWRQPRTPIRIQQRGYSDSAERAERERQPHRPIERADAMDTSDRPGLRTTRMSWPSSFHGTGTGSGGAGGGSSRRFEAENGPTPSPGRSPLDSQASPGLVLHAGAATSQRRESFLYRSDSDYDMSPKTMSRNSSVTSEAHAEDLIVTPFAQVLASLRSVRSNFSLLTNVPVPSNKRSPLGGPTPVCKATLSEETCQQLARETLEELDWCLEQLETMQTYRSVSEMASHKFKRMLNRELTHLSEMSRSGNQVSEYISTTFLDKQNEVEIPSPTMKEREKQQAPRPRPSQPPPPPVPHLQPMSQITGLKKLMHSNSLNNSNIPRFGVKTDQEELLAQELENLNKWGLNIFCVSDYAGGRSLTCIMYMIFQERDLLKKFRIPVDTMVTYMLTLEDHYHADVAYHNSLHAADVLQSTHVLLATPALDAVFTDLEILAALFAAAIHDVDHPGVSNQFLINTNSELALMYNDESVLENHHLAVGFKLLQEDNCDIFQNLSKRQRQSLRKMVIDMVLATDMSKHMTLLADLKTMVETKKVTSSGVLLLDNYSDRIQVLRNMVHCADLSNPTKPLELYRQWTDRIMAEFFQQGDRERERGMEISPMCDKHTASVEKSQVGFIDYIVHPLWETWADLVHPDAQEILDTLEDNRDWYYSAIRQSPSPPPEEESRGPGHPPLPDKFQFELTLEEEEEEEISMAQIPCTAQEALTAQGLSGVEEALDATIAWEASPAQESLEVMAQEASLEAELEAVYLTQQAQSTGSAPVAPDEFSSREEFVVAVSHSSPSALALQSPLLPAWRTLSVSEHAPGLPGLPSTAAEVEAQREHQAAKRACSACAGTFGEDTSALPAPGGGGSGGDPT
A further experiment addresses PDE4B2 (Homo sapiens, UniProt Q07343). Kind of experiment: in vitro enzyme assay, E. coli expressed and purified PDE4B2. Also noted: targets used in the assays are full-length proteins (as opposed to simply the catalytic domain). Format: biochemical. As to conditions: read-out: IC50 (or AC200), PDE4B2.
In the next experiment the target is PDE4D (Homo sapiens, UniProt Q08499). Briefly: in vitro enzyme assay PDE4D (Table 7). It is filed as biochemical. As to conditions: 2 micromolar compound; read-out: percent of PDE activity present, PDE4D.
PDE4D, sequence (Q08499 whole entry): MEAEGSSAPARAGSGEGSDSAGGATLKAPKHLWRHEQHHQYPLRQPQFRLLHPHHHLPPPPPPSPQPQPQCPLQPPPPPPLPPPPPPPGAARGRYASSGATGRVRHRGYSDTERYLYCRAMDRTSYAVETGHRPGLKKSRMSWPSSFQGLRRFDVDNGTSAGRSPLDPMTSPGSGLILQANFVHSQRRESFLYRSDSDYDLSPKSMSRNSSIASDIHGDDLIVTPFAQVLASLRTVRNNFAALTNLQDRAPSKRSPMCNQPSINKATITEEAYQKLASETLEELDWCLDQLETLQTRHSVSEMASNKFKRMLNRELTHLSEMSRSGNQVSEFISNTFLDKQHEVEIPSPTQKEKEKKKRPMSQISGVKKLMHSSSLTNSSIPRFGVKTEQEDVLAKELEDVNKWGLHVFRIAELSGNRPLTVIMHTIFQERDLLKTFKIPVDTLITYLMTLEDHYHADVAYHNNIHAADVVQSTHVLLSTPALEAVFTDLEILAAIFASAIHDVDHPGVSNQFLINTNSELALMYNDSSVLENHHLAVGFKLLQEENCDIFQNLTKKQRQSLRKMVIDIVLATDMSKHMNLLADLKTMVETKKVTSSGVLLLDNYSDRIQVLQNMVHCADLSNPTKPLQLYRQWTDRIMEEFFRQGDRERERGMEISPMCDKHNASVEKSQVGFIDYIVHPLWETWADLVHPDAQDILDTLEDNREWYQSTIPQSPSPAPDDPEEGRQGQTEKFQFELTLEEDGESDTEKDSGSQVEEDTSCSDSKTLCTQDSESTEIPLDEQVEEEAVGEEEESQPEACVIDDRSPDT
[7] abbreviates: optical density after 48 hours at 30° C.

Where only a bound is given, the exact number is not on record here.

T1 sequence (Q13946 whole entry, the tested form may be a part): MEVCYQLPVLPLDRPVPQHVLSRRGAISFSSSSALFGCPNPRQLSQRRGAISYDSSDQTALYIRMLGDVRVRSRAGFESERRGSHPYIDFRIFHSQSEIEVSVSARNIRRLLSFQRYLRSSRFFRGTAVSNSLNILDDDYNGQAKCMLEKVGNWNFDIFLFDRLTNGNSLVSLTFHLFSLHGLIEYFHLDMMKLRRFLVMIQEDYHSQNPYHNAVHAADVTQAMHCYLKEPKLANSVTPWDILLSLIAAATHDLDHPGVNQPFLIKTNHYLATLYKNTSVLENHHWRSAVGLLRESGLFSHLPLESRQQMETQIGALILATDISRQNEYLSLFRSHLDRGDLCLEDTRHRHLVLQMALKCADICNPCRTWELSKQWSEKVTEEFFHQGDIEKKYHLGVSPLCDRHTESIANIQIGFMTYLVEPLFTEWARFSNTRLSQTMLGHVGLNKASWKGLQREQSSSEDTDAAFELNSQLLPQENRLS
PDE4B2, sequence (Q07343 1-564 isoform Q07343-2, species assumed): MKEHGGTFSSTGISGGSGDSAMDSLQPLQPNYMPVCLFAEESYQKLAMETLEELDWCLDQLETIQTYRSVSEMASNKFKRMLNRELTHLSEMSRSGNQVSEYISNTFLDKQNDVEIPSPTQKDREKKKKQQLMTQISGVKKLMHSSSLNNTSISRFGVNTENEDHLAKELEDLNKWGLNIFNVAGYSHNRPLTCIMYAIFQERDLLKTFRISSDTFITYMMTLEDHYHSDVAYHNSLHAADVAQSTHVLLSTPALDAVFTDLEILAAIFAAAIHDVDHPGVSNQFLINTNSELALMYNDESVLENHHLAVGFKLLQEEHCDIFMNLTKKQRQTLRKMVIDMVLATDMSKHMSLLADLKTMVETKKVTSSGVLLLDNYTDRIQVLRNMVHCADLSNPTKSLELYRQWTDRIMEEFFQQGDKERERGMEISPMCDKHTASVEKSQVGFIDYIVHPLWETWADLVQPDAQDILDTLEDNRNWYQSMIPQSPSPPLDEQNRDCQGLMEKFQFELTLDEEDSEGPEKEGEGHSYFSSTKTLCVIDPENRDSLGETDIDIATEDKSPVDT

Take `CN(C)c1ccc(/C=C/C=C2/C(=O)NC(=O)N(c3ccccc3)C2=O)cc1` [BC12]: in the experiment on CLL, the “activity in CLL assay, in words” value was “shows activity”. For the same compound, in the experiment on U937 cells, the “TNF alpha reduction, conclusion in words” value is “shows activity”. Also, the “5FOA growth response, PDE7A strain, in words” value on PDE7A [1] (setting [7]) is “most potent inhibitor, promoting growth at low micromolar concentrations”. Also, the “PDE4D catalytic domain, 2 uM cpm” value at PDE4D2-CAT (2 uM compound) was found to be 3686 cpm. Further, the activity at 2 µM at PDE4D2-CAT (2 micromolar compound, DMSO = 100, read-out: In vitro activation of PDE4D catalytic domain, % activity) amounted to 133%. In the experiment with Lymphoma cells, the “apoptosis of lymphoma cells, in words” value was “apoptosis effect”. Moreover, the “inhibition of PDE7B from pulmonary endothelial cells, in words” value at PDE7B [2] is on record as “potent inhibitor”. Besides, the Ki at PDE7B [2] (KI on PDE7 (PDE7B) from rat pulmonary endothelial cells, cell extracts) is approximately 200 nM. In addition, at PDE7B [2] (PDE7B, rat pulmonary endothelial cell extracts), the “KI lower than that of BRL50481” value is on record as “approximately 100 fold”. In [3], the “PDE inhibitor profile, in words” value was “PDE7 inhibitor that appears to activate PDE4D and PDE7B in vitro (not in vivo)”. Besides, the “PDE7B, 2 uM cpm” value on PDE7B [4] (2 uM compound) is on record as 2388 cpm. Besides, at PDE7B [4] (E. coli-expressed catalytic domain), the “effect on cAMP hydrolysis by PDE7B in vitro, in words” value was “increases cAMP hydrolysis”. Also, at PDE7B [5] (setting [7]), the “5FOA growth response, PDE7B strain, in words” value is reported as “most potent inhibitor, promoting growth at low micromolar concentrations”.

As for `Cc1ccc([N+](=O)[O-])cc1S(=O)(=O)N(C)C` [BRL50481, reference compound], the EC50 on PDE7A [1] (OD600 0.6, read-out: ED50 for 5FOA growth assays, PDE7A) is 1300 nM; at PDE7B [5] (OD600 0.6, read-out: ED50 for 5FOA growth assays, PDE7B), 42000 nM. Further, the results for the IC50 at PDE4D2-FL, at PDE7A [6] and on PDE7B [4] were more than 20000 nM, 200 nM and 18000 nM, respectively.

As for `Cc1c(C(=O)Nc2ccc(F)cc2F)sc2ncnc(N3CCC(C)CC3)c12` [Compound 58], the remaining activity at 2 µM on PDE4B amounted to 16%; on PDE4A, 31%; at PDE7A [6] (2 micromolar compound, read-out: percent of PDE activity present, PDE7A) it was 68%; at PDE4D, 31%. In addition, the TNF was determined as 3345 pg/mL with U937 cells (3 HOURS) and 10030 pg/mL in the experiment with U937 cells (20 HOURS). The “TNF, % EtOH cntrl” value turned out to be 69.2% with U937 cells (3 HOURS) and 73.3% in the experiment on U937 cells (20 HOURS). Moreover, the “TNF alpha, % vehicle control” value in the experiment with U937 cells (after 3 h.) came to 61.2%; with U937 cells (after 20 h.), 53.8%. Further, the IC50 at PDE4D2-CAT (catalytic fragment, AC200 = [Compound] that doubles PDE activity, read-out: IC50 (or AC200), PDE4D2-CAT) is less than 2000 nM; at PDE4B2, 1500 nM; on PDE7A [6], more than 2000 nM; on PDE7B [4], more than 2000 nM.
